Values after ≈ are worked out from the molar mass of the structure shown. Where two headings read alike, the source gives them in different places.
Tested on: Candida auris strains
Assay: Candida auris antifungal susceptibility testing (CLSI M27-A3), 38 strains
Format: cell-based
Conditions: for MIC: Candidozyma auris, read-out: MIC

- MIC (24 h, strain 1 VPCI 669/P/12, 24 h): 0.25 µg/mL (≈ 0.229 µM)
- MIC (24 h, strain 2 VCPI 671/P/12, 24 h): 0.25 µg/mL (≈ 0.229 µM)
- MIC (24 h, strain 3 VCPI 674/P/12, 24 h): 0.25 µg/mL (≈ 0.229 µM)
- MIC (24 h, strain 4 VCPI 683/P/12, 24 h): 0.25 µg/mL (≈ 0.229 µM)
- MIC (24 h, strain 5 VCPI 692/P/12, 24 h): 0.25 µg/mL (≈ 0.229 µM)
- MIC (24 h, strain 6 VCPI 712/P/12, 24 h): 0.25 µg/mL (≈ 0.229 µM)
- MIC (24 h, strain 7 VCPI 471/P/13, 24 h): 1 µg/mL (≈ 0.915 µM)
- MIC (24 h, strain 8 VCPI 475/P/13, 24 h): 0.25 µg/mL (≈ 0.229 µM)
- MIC (24 h, strain 9 VCPI 478/P/13, 24 h): 0.25 µg/mL (≈ 0.229 µM)
- MIC (24 h, strain 10 VCPI 479/P/13, 24 h): 0.5 µg/mL (≈ 0.457 µM)
- MIC (24 h, strain 11 VCPI 480/P/13, 24 h): 0.5 µg/mL (≈ 0.457 µM)
- MIC (24 h, strain 12 VCPI 482/P/13, 24 h): 0.5 µg/mL (≈ 0.457 µM)
- MIC (24 h, strain 13 VCPI 483/P/13, 24 h): 0.25 µg/mL (≈ 0.229 µM)
- MIC (24 h, strain 14 VCPI 1130/P/13, 24 h): 0.5 µg/mL (≈ 0.457 µM)
- MIC (24 h, strain 15 VCPI 1132/P/13, 24 h): 0.5 µg/mL (≈ 0.457 µM)
- MIC (24 h, strain 16 VCPI 1133/P/13, 24 h): 16 µg/mL (≈ 14.6 µM)
- MIC (24 h, strain 17 VCPI 105/P/14, 24 h): 0.5 µg/mL (≈ 0.457 µM)
- MIC (24 h, strain 18 VCPI 107/P/14, 24 h): 0.25 µg/mL (≈ 0.229 µM)
- MIC (24 h, strain 19 VCPI 510/P/14, 24 h): 0.5 µg/mL (≈ 0.457 µM)
- MIC (24 h, strain 20 VCPI 511/P/14, 24 h): 0.5 µg/mL (≈ 0.457 µM)
- MIC (24 h, strain 21 VCPI 512/P/14, 24 h): 0.5 µg/mL (≈ 0.457 µM)
- MIC (24 h, strain 22 VCPI 513/P/14, 24 h): 1 µg/mL (≈ 0.915 µM)
- MIC (24 h, strain 23 VCPI 514/P/14, 24 h): 0.5 µg/mL (≈ 0.457 µM)
- MIC (24 h, strain 24 VCPI 250/P/14, 24 h): 0.5 µg/mL (≈ 0.457 µM)
- MIC (24 h, strain 25 VCPI 265/P/14, 24 h): 8 µg/mL (≈ 7.32 µM)
- MIC (24 h, strain 26 VCPI 266/P/14, 24 h): 0.125 µg/mL (≈ 0.114 µM)
- MIC (24 h, strain 27 VCPI 462/P/14, 24 h): 8 µg/mL (≈ 7.32 µM)
- MIC (24 h, strain 28 VCPI 463/P/14, 24 h): 0.5 µg/mL (≈ 0.457 µM)
- MIC (24 h, strain 29 VCPI 467/P/14, 24 h): 0.125 µg/mL (≈ 0.114 µM)
- MIC (24 h, strain 30 VCPI 471a/P/14, 24 h): 4 µg/mL (≈ 3.66 µM)
- MIC (24 h, strain 31 VCPI 478/P/14, 24 h): 1 µg/mL (≈ 0.915 µM)
- MIC (24 h, strain 32 VCPI 518/P/14, 24 h): 0.5 µg/mL (≈ 0.457 µM)
- MIC (24 h, strain 33 VCPI 550/P/14, 24 h): 0.125 µg/mL (≈ 0.114 µM)
- MIC (24 h, strain 34 VCPI 714/P/14, 24 h): 0.5 µg/mL (≈ 0.457 µM)
- MIC (24 h, strain 35 VCPI 717/P/14, 24 h): 0.5 µg/mL (≈ 0.457 µM)
- MIC (24 h, strain 36 VCPI 1060/P/14, 24 h): 0.5 µg/mL (≈ 0.457 µM)
- MIC (24 h, strain 37 VCPI 74/P/15, 24 h): 0.5 µg/mL (≈ 0.457 µM)
- MIC (24 h, strain 38 VCPI 213/P/15, 24 h): 0.5 µg/mL (≈ 0.457 µM)
- MIC (48 h, strain 1 VPCI 669/P/12, 48 h): > 16 µg/mL
- MIC (48 h, strain 2 VCPI 671/P/12, 48 h): > 16 µg/mL
- MIC (48 h, strain 3 VCPI 674/P/12, 48 h): 0.25 µg/mL (≈ 0.229 µM)
- MIC (48 h, strain 4 VCPI 683/P/12, 48 h): > 16 µg/mL
- MIC (48 h, strain 5 VCPI 692/P/12, 48 h): > 16 µg/mL
- MIC (48 h, strain 6 VCPI 712/P/12, 48 h): 0.25 µg/mL (≈ 0.229 µM)
- MIC (48 h, strain 7 VCPI 471/P/13, 48 h): > 16 µg/mL
- MIC (48 h, strain 8 VCPI 475/P/13, 48 h): 0.25 µg/mL (≈ 0.229 µM)
- MIC (48 h, strain 9 VCPI 478/P/13, 48 h): > 16 µg/mL
- MIC (48 h, strain 10 VCPI 479/P/13, 48 h): > 16 µg/mL
- MIC (48 h, strain 11 VCPI 480/P/13, 48 h): > 16 µg/mL
- MIC (48 h, strain 12 VCPI 482/P/13, 48 h): > 16 µg/mL
- MIC (48 h, strain 13 VCPI 483/P/13, 48 h): 0.25 µg/mL (≈ 0.229 µM)
- MIC (48 h, strain 14 VCPI 1130/P/13, 48 h): 0.5 µg/mL (≈ 0.457 µM)
- MIC (48 h, strain 15 VCPI 1132/P/13, 48 h): 0.5 µg/mL (≈ 0.457 µM)
- MIC (48 h, strain 16 VCPI 1133/P/13, 48 h): > 16 µg/mL
- MIC (48 h, strain 17 VCPI 105/P/14, 48 h): 1 µg/mL (≈ 0.915 µM)
- MIC (48 h, strain 18 VCPI 107/P/14, 48 h): 0.5 µg/mL (≈ 0.457 µM)
- MIC (48 h, strain 19 VCPI 510/P/14, 48 h): > 16 µg/mL
- MIC (48 h, strain 20 VCPI 511/P/14, 48 h): > 16 µg/mL
- MIC (48 h, strain 21 VCPI 512/P/14, 48 h): 1 µg/mL (≈ 0.915 µM)
- MIC (48 h, strain 22 VCPI 513/P/14, 48 h): > 16 µg/mL
- MIC (48 h, strain 23 VCPI 514/P/14, 48 h): 1 µg/mL (≈ 0.915 µM)
- MIC (48 h, strain 24 VCPI 250/P/14, 48 h): 0.5 µg/mL (≈ 0.457 µM)
- MIC (48 h, strain 25 VCPI 265/P/14, 48 h): > 16 µg/mL
- MIC (48 h, strain 26 VCPI 266/P/14, 48 h): 0.125 µg/mL (≈ 0.114 µM)
- MIC (48 h, strain 27 VCPI 462/P/14, 48 h): > 16 µg/mL
- MIC (48 h, strain 28 VCPI 463/P/14, 48 h): 0.5 µg/mL (≈ 0.457 µM)
- MIC (48 h, strain 29 VCPI 467/P/14, 48 h): 0.5 µg/mL (≈ 0.457 µM)
- MIC (48 h, strain 30 VCPI 471a/P/14, 48 h): > 16 µg/mL
- MIC (48 h, strain 31 VCPI 478/P/14, 48 h): 2 µg/mL (≈ 1.83 µM)
- MIC (48 h, strain 32 VCPI 518/P/14, 48 h): 16 µg/mL (≈ 14.6 µM)
- MIC (48 h, strain 33 VCPI 550/P/14, 48 h): 0.25 µg/mL (≈ 0.229 µM)
- MIC (48 h, strain 34 VCPI 714/P/14, 48 h): > 16 µg/mL
- MIC (48 h, strain 35 VCPI 717/P/14, 48 h): > 16 µg/mL
- MIC (48 h, strain 36 VCPI 1060/P/14, 48 h): > 16 µg/mL
- MIC (48 h, strain 37 VCPI 74/P/15, 48 h): > 16 µg/mL
- MIC (48 h, strain 38 VCPI 213/P/15, 48 h): > 16 µg/mL
SMILES: CC[C@H](C)C[C@H](C)CCCCCCCCC(=O)N[C@H]1C[C@@H](O)[C@@H](NCCN)NC(=O)[C@@H]2[C@@H](O)CCN2C(=O)[C@H]([C@H](O)CCN)NC(=O)[C@H]([C@H](O)[C@@H](O)c2ccc(O)cc2)NC(=O)[C@@H]2C[C@@H](O)CN2C(=O)[C@H]([C@@H](C)O)NC1=O [CAS, caspofungin]
- number of resistant isolates (of 38 C. auris isolates): 4
